Laboratory results published in patent publication US12129237B2, “Substituted diaminocarboxamide and diaminocarbonitrile pyrimidines, compositions thereof, and methods of treatment therewith” (SIGNAL PHARMACEUTICALS, LLC, priority 2011, dated 2024).

Target: T1, JNK1 (Homo sapiens, UniProt P45983)
T1 construct: purchased Carna Biosciences
Assay: JNK1 biochemical assays (one or more of: time resolved fluorescence, Z'-LYTE Cascade, radioactive)
Conditions: one or more of the JNK1 biochemical assays; read-out: Act. Level (JNK1 IC50 activity level)

T1 sequence (P45983 whole entry): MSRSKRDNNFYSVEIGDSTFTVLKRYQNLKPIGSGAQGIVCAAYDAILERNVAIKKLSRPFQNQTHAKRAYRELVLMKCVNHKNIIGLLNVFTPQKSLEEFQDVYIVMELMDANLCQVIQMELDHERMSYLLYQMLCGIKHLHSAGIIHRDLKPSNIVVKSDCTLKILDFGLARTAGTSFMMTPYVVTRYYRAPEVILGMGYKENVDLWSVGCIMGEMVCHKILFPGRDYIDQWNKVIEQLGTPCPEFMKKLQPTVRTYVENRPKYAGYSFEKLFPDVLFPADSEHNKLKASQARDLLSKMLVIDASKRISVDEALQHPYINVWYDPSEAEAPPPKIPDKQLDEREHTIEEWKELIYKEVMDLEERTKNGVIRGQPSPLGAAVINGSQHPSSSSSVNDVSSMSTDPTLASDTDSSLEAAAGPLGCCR

SMILES | IC50 [µM]
CC(C)CCNc1nc(N[C@H]2CC[C@H](O)CC2)ncc1C(N)=O [Example 220, 2-((1r,4r)-4-hydroxycyclohexylamino)-4-(isopentylamino)pyrimidine-5-carboxamide] | < 0.2
NC(=O)c1cnc(N[C@H]2CC[C@H](O)CC2)nc1NCC1CCC1 [Example 221, 4-(cyclobutylmethylamino)-2-((1r,4r)-4-hydroxycyclohexylamino)pyrimidine-5-carboxamide] | < 0.2
CC(C)Nc1nc(NC2CCOCC2)ncc1C(N)=O [Example 222, 4-(isopropylamino)-2-(tetrahydro-2H-pyran-4-ylamino)pyrimidine-5-carboxamide] | 0.2 to 0.8
CCO[C@H]1CC[C@H](Nc2ncc(C(N)=O)c(NC(C)C)n2)CC1 [Example 224, 2-((1r,4r)-4-ethoxycyclohexylamino)-4-(isopropylamino)pyrimidine-5-carboxamide] | < 0.2
CCC(C)(C)Nc1nc(N[C@H]2CC[C@H](O)CC2)ncc1C(N)=O [Example 225, 2-((1r,4r)-4-hydroxycyclohexylamino)-4-(tert-pentylamino)pyrimidine-5-carboxamide] | < 0.2
NC(=O)c1cnc(N[C@H]2CC[C@H](O)CC2)nc1NCC1CC1 [Example 226, 4-(cyclopropylmethylamino)-2-((1r,4r)-4-hydroxycyclohexylamino)pyrimidine-5-carboxamide] | < 0.2
CC(C)Nc1nc(NC(C)(C)C)ncc1C(N)=O [Example 227, 2-(tert-butylamino)-4-(isopropylamino)pyrimidine-5-carboxamide] | 0.2 to 0.8
CC(C)(C)CNc1nc(N[C@H]2CC[C@H](O)CC2)ncc1C(N)=O [Example 228, 2-((1r,4r)-4-hydroxycyclohexylamino)-4-(neopentylamino)pyrimidine-5-carboxamide] | < 0.2
NC(=O)c1cnc(NC23CCC(O)(CC2)CC3)nc1N[C@@H]1CCC[C@H](O)C1 [Example 229, 2-(4-hydroxybicyclo[2.2.2]octan-1-ylamino)-4-((1R,3S)-3-hydroxycyclohexylamino)pyrimidine-5-carboxamide] | < 0.2
COC12CCC(Nc3ncc(C(N)=O)c(N[C@@H]4CCC[C@H](O)C4)n3)(CC1)CC2 [Example 231, 4-((1R,3S)-3-hydroxycyclohexylamino)-2-(4-methoxybicyclo[2.2.2]octan-1-ylamino)pyrimidine-5-carboxamide] | < 0.2
NC(=O)c1cnc(NC23CCC(O)(CC2)CC3)nc1NC1CCC1 [Example 232, 4-(cyclobutylamino)-2-(4-hydroxybicyclo[2.2.2]octan-1-ylamino)pyrimidine-5-carboxamide] | < 0.2
CC(C)Nc1nc(N[C@H]2CCC[C@@H](O)CC2)ncc1C(N)=O [Example 233, 2-((1S,4R)-4-hydroxycycloheptylamino)-4-(isopropylamino)pyrimidine-5-carboxamide] | < 0.2
CC(C)Nc1nc(N[C@@H]2CCC[C@H](O)CC2)ncc1C(N)=O [Example 234, 2-((1R,4S)-4-hydroxycycloheptylamino)-4-(isopropylamino)pyrimidine-5-carboxamide] | < 0.2
NC(=O)c1cnc(N[C@H]2CC[C@H](O)CC2)nc1NC1COC1 [Example 235, 2-((1r,4r)-4-hydroxycyclohexylamino)-4-(oxetan-3-ylamino)pyrimidine-5-carboxamide] | < 0.2
CC(C)(C)Nc1ncc(C(N)=O)c(N[C@@H]2CCCOC2)n1 [Example 236, (R)-2-(tert-butylamino)-4-(tetrahydro-2H-pyran-3-ylamino)pyrimidine-5-carboxamide] | 0.2 to 0.8
CC(C)(C)Nc1nc(NC23CCC(O)(CC2)CC3)ncc1C(N)=O [Example 237, 4-(tert-butylamino)-2-(4-hydroxybicyclo[2.2.2]octan-1-ylamino)pyrimidine-5-carboxamide] | < 0.2
CC(C)(C)Nc1ncc(C(N)=O)c(NC(C)(C)C)n1 [Example 238, 2,4-bis(tert-butylamino)pyrimidine-5-carboxamide] | 0.2 to 0.8
CC1(Nc2nc(N[C@H]3CC[C@H](O)CC3)ncc2C(N)=O)CCC1 [Example 239, 2-((1r,4r)-4-hydroxycyclohexylamino)-4-(1-methylcyclobutylamino)pyrimidine-5-carboxamide] | < 0.2
CC(C)Nc1ncc(C(N)=O)c(N[C@@H]2CC[C@@H](C)[C@H](O)C2)n1 [Example 240, 4-((1R,3R,4R)-3-hydroxy-4-methylcyclohexylamino)-2-(isopropylamino)pyrimidine-5-carboxamide] | < 0.2
NC(=O)c1cnc(NC2CCC(F)(F)CC2)nc1N[C@@H]1CCC[C@@H]1CO [Example 241, 2-(4,4-difluorocyclohexylamino)-4-((1R,2S)-2-(hydroxymethyl)cyclopentylamino)pyrimidine-5-carboxamide] | < 0.2
CO[C@H]1CC[C@H](Nc2ncc(C(N)=O)c(NC3CCC3C)n2)CC1 (some centres unmarked) [Example 242, 2-((1r,4r)-4-methoxycyclohexylamino)-4-(2-methylcyclobutylamino)pyrimidine-5-carboxamide] | < 0.2

SMILES | IC50 [µM]
CO[C@H]1CC[C@H](Nc2ncc(C(N)=O)c(NC3CCC3C)n2)CC1 (some centres unmarked) [Example 243, 2-((1r,4r)-4-methoxycyclohexylamino)-4-(2-methylcyclobutylamino)pyrimidine-5-carboxamide] | < 0.2
CC1CCC1Nc1nc(N[C@H]2CC[C@H](O)CC2)ncc1C(N)=O (some centres unmarked) [Example 244, 2-((1r,4r)-4-hydroxycyclohexylamino)-4-(2-methylcyclobutylamino)pyrimidine-5-carboxamide] | < 0.2
CC1CCC1Nc1nc(N[C@H]2CC[C@H](O)CC2)ncc1C(N)=O (some centres unmarked) [Example 245, 2-((1r,4r)-4-hydroxycyclohexylamino)-4-(2-methylcyclobutylamino)pyrimidine-5-carboxamide] | < 0.2
CC1CCC1Nc1nc(N[C@H]2CC[C@H](O)CC2)ncc1C(N)=O (some centres unmarked) [Example 246, 2-((1r,4r)-4-hydroxycyclohexylamino)-4-(2-methylcyclobutylamino)pyrimidine-5-carboxamide] | < 0.2
CC1CCC1Nc1nc(N[C@H]2CC[C@H](O)CC2)ncc1C(N)=O (some centres unmarked) [Example 247, 2-((1r,4r)-4-hydroxycyclohexylamino)-4-(2-methylcyclobutylamino)pyrimidine-5-carboxamide] | < 0.2
NC(=O)c1cnc(NC2CCCC(O)CC2)nc1NC1CCC1 (centres unmarked) [Example 248, 4-(cyclobutylamino)-2-(4-hydroxycycloheptylamino)pyrimidine-5-carboxamide] | < 0.2
NC(=O)c1cnc(NC2CCCC(O)CC2)nc1NC1CCC1 (centres unmarked) [Example 249, 4-(cyclobutylamino)-2-(4-hydroxycycloheptylamino)pyrimidine-5-carboxamide] | < 0.2
CC(C)(C)Nc1nc(NC2CCCC(O)CC2)ncc1C(N)=O (centres unmarked) [Example 250, 4-(tert-butylamino)-2-(4-hydroxycycloheptylamino)pyrimidine-5-carboxamide] | < 0.2
CC(C)(C)Nc1nc(NC2CCCC(O)CC2)ncc1C(N)=O (centres unmarked) [Example 251, 4-(tert-butylamino)-2-(4-hydroxycycloheptylamino)pyrimidine-5-carboxamide] | < 0.2
NC(=O)c1cnc(NC2CCOCC2)nc1N[C@@H]1CCC[C@@H]1CO [Example 252, 4-((1R,2S)-2-(hydroxymethyl)cyclopentylamino)-2-(tetrahydro-2H-pyran-4-ylamino)pyrimidine-5-carboxamide] | < 0.2
CC(C)Nc1nc(NC23CCC(F)(CC2)CC3)ncc1C(N)=O [Example 253, 2-(4-fluorobicyclo[2.2.2]octan-1-ylamino)-4-(isopropylamino)pyrimidine-5-carboxamide] | < 0.2
CO[C@H]1CC[C@H](Nc2ncc(C(N)=O)c(NC3CCC3C)n2)CC1 (some centres unmarked) [Example 254, 2-((1r,4r)-4-methoxycyclohexylamino)-4-(2-methylcyclobutylamino)pyrimidine-5-carboxamide] | < 0.2
CO[C@H]1CC[C@H](Nc2ncc(C(N)=O)c(NC3CCC3C)n2)CC1 (some centres unmarked) [Example 255, 2-((1r,4r)-4-methoxycyclohexylamino)-4-(2-methylcyclobutylamino)pyrimidine-5-carboxamide] | < 0.2
CC1CCC1Nc1nc(N[C@H]2CC[C@H](OCC(F)(F)F)CC2)ncc1C(N)=O (some centres unmarked) [Example 256, 4-(2-methylcyclobutylamino)-2-((1r,4r)-4-(2,2,2-trifluoroethoxy)cyclohexylamino)pyrimidine-5-carboxamide] | < 0.2
CC1CCC1Nc1nc(N[C@H]2CC[C@H](OCC(F)(F)F)CC2)ncc1C(N)=O (some centres unmarked) [Example 257, 4-(2-methylcyclobutylamino)-2-((1r,4r)-4-(2,2,2-trifluoroethoxy)cyclohexylamino)pyrimidine-5-carboxamide] | < 0.2
CC1CCC1Nc1nc(N[C@H]2CC[C@H](OCC(F)(F)F)CC2)ncc1C(N)=O (some centres unmarked) [Example 258, 4-(2-methylcyclobutylamino)-2-((1r,4r)-4-(2,2,2-trifluoroethoxy)cyclohexylamino)pyrimidine-5-carboxamide] | < 0.2
CCO[C@H]1CC[C@H](Nc2ncc(C(N)=O)c(N[C@@H]3CCC[C@H]3CO)n2)CC1 [Example 259, 2-((1r,4R)-4-ethoxycyclohexylamino)-4-((1R,2R)-2-(hydroxymethyl)cyclopentylamino)pyrimidine-5-carboxamide] | < 0.2
CO[C@H]1CC[C@H](Nc2ncc(C(N)=O)c(N[C@@H]3CCC[C@H]3CO)n2)CC1 [Example 260, 4-((1R,2R)-2-(hydroxymethyl)cyclopentylamino)-2-((1r,4R)-4-methoxycyclohexylamino)pyrimidine-5-carboxamide] | < 0.2
C[C@@H](Nc1nc(N[C@H]2CC[C@H](O)CC2)ncc1C(N)=O)C1CC1 [Example 261, 4-((R)-1-cyclopropylethylamino)-2-((1r,4R)-4-hydroxycyclohexylamino)pyrimidine-5-carboxamide] | < 0.2
CCC(C)(CC)Nc1nc(N[C@H]2CC[C@H](O)CC2)ncc1C(N)=O [Example 262, 2-((1r,4r)-4-hydroxycyclohexylamino)-4-(3-methylpentan-3-ylamino)pyrimidine-5-carboxamide] | < 0.2
